The source made the active and inactive calls. The rule behind the calls is not given here.
What follows are molecules tested against RanGTP-importin-beta complex (human Ran / KPNB1) (assay: disruptors of RanGTP/KPNB1 binding – biochemical, FRET, CFP/YFP, cell-free homogeneous, confirmation (AID 2823)). Conditions: CFP-Ran/YFP-importin-beta FRET ratio.
COc1cccc(C(=O)/C=C/Nc2cc(C)ccc2O)c1 was tested, and the IC50 was > 50 µM (inactive).
For CN(CCOc1ccccc1)CC(=O)Nc1ccc(Cl)cc1[N+](=O)[O-], the IC50 was > 50 µM (inactive).
In the case of Oc1nc(Nc2ccc(F)cc2)sc1/C=C1\C=Nc2ccccc21, the IC50 is reported as > 50 µM (inactive).
With CCCCn1c(N)c(N(CCOC)C(=O)CN2c3ccccc3CC2C)c(=O)[nH]c1=O (configuration not stated) the IC50 was > 50 µM (inactive).
For COc1ccc(Br)cc1/C=C/C(=O)NC(=S)Nc1ccc(CN2CCOCC2)cc1, the IC50 was > 50 µM (inactive).
In the case of O=C(CSCC(=O)NC1CC1)Nc1ccccc1, the IC50 is reported as > 50 µM (inactive).
In the case of N#C/C(=C\c1ccc(O)c(Br)c1)C(=O)NCc1ccccc1, the IC50 is reported as 25.8 µM.
COc1ccccc1C(=O)NC(=S)Nc1ccc(N2CCCC2)cc1 was tested, and the IC50 was > 50 µM (inactive).
With Cc1ccc2nc(N3CCN(C(=O)c4cccs4)CC3)c(C#N)cc2c1 the IC50 was 17.7 µM.
With CCc1ccc(CNc2ccc3c(c2)ncn3CC)cc1 the IC50 was > 50 µM (inactive).
In the case of N#C/C(=C/c1cn(CC(=O)O)c2ccccc12)C(=O)NCc1ccccc1, the IC50 is reported as > 50 µM (inactive).
In the case of O=c1[nH]c2c(s1)C(c1ccco1)C1C3CCC(C3)C1S2 (configuration not stated), the IC50 is reported as > 50 µM (inactive).
With O=c1[nH]c(Nc2ccccn2)cc2ccccc12 the IC50 was > 50 µM (inactive).
For COc1cccc(C2=NOC(C(=O)Nc3cc(C)on3)C2)c1 (configuration not stated), the IC50 was > 50 µM (inactive).
With COc1ccc(-c2ccc(-c3noc(-c4ccccc4C)n3)c(OC)n2)cc1 the IC50 was > 50 µM (inactive).
In the case of CCN(C(=O)c1c(C)cc(=O)oc1C)c1ccc2c(c1)OCO2, the IC50 is reported as > 50 µM (inactive).
CCOC(=O)N1CCN(/C=C(\C#N)c2nc3ccccc3s2)CC1 was tested, and the IC50 was > 50 µM (inactive).
COCCNC(=O)/C(C#N)=C/c1cn(CC(=O)NCc2ccco2)c2ccccc12 was tested, and the IC50 was 40.4 µM.
CC1C=CCC2C(=O)N(c3ccccc3OC(=O)c3cccs3)C(=O)C12 (configuration not stated) was tested, and the IC50 was > 50 µM (inactive).
COC(=O)Cn1c(=O)c2c(nc3n2CCCN3CCc2ccccc2)n(C)c1=O was tested, and the IC50 was > 50 µM (inactive).
Work on COC(=O)Cc1c(C)c2cc(Cl)c(OC(=O)c3ccco3)cc2oc1=O yielded an IC50 of 14.2 µM.
CC(C)c1ccccc1NC(=O)C1C2C=CC(C2)C1C(=O)O (configuration not stated) was tested, and the IC50 was > 50 µM (inactive).
CCOC(=O)c1c(N2C(=O)Nc3ccccc3N2O)sc2c1CCCC2 was tested, and the IC50 was > 50 µM (inactive).
Work on Cc1c(CC(=O)N2CCN(C(=O)C3COc4ccccc4O3)CC2)c(=O)oc2c(C)c(O)ccc12 (configuration not stated) yielded an IC50 of 20.8 µM.
For CCC(=O)Nc1cccc(NC(=S)NC(=O)c2cccs2)c1, the IC50 was > 50 µM (inactive).
For CC(C)C1C2=C(CC(C)(C)CC2=O)ON1c1ccccc1 (configuration not stated), the IC50 was > 50 µM (inactive).
For Cc1ccc(Cl)cc1-n1c(=O)cc(N2CC(C)OC(C)C2)[nH]c1=O (configuration not stated), the IC50 was > 50 µM (inactive).
Molecule COc1ccccc1C(=O)NCCNc1nc2cc(C)cc(C)c2cc1C#N has an IC50 of 39.5 µM.
With O=C1C=C(Nc2ccc(Cl)cc2Cl)CC(c2ccco2)C1 (configuration not stated) the IC50 was > 50 µM (inactive).
For Cc1cccc(NC(=O)c2cc3c(s2)-c2c(C)cccc2OC3)n1, the IC50 was 7.45 µM.
For COc1ccc(CCNc2c3ccccc3nc3ccccc23)cc1OC, the IC50 was 12.5 µM.
Work on Cc1nc(Nc2cnc(/C=C/c3cc(C(=O)Nc4cccc(C(F)(F)F)c4)ccc3C)cn2)cc(N2CCNCC2)n1 yielded an IC50 of 19.7 µM.
For Cc1cc(C)c2c(c1)/C(=c1/sc3n(c1=O)CN(c1ccccc1)CN=3)C(=O)N2, the IC50 was > 50 µM (inactive).
Work on Cc1ccc(-c2c(C#N)c(N)nc3c2CCCC3)s1 yielded an IC50 of 25.7 µM.
For COc1cccc(-c2cc(C(=O)NC3CC3)c3ccccc3n2)c1, the IC50 was > 50 µM (inactive).
With CCCc1cc(=O)oc2c(CN(CC)CC)c(O)c(Cl)cc12 the IC50 was 43.4 µM.
With COC(=O)c1cc(C(=O)OC)[nH]n1 the IC50 was > 50 µM (inactive).
In the case of COC(=O)C1=CN(Cc2ccccc2)C=C(C(=O)OC)C1c1ccc(O)c(OC)c1, the IC50 is reported as > 50 µM (inactive).
Cn1cnnc1SCC(=O)c1cc2ccccc2oc1=O was tested, and the IC50 was > 50 µM (inactive).
Molecule CCOC(=O)c1c(N)n(CCN2CCCCC2)c2nc3ccccc3nc12 has an IC50 of 32.3 µM.
CN(C)Cc1c(O)ccc2c3c(c(=O)oc12)CCCCC3 was tested, and the IC50 was 24.6 µM.
For CCOC(=O)N1CCN(c2cc(=O)n(C3CCCCC3)c(=O)[nH]2)CC1, the IC50 was > 50 µM (inactive).
COc1ccc(Cn2c(=N)c(C(=O)NC3CCCCC3)cc3c(=O)n4ccccc4nc32)cc1 showed an IC50 of 47.7 µM.
For O=c1cc(N2CCC3(CC2)OCCO3)[nH]c(=O)n1-c1ccc(Br)cc1, the IC50 was > 50 µM (inactive).
In the case of Cc1cccc(NC(=O)c2cc(S(=O)(=O)N(C)c3ccc(F)cc3)ccc2Cl)n1, the IC50 is reported as > 50 µM (inactive).
In the case of COc1cccc(NC(=O)CSc2ncc(S(=O)(=O)c3ccccc3)c(=O)[nH]2)c1, the IC50 is reported as > 50 µM (inactive).
In the case of COC(=O)c1cccnc1NC(=S)NNC(=O)c1ccccc1, the IC50 is reported as > 50 µM (inactive).
In the case of O=C(NNC(=S)NC(=O)c1ccccc1[N+](=O)[O-])c1ccccc1O, the IC50 is reported as > 50 µM (inactive).
With Cc1cc(Cl)c(S(=O)(=O)N2CCCC2)cc1OCC(=O)NC1CCCCC1 the IC50 was > 50 µM (inactive).
With CNc1cc(F)nc(F)n1 the IC50 was 18.4 µM.
In the case of COc1ccc(Cl)cc1S(=O)(=O)Nc1noc2ccccc12, the IC50 is reported as > 50 µM (inactive).
In the case of COC(=O)C1=CN(c2ccc(OC)cc2)C=C(C(=O)OC)C1c1cccc(F)c1, the IC50 is reported as 35.2 µM.
In the case of CC(C)NC(=O)/C(C#N)=C/c1ccc(N(C)C)o1, the IC50 is reported as 6.07 µM.
Work on CCN(CC)Cc1c(O)c(Cl)cc2c3c(c(=O)oc12)CCCC3 yielded an IC50 of 20.6 µM.
Cc1ccc(S(=O)(=O)Nc2nc3ccccc3nc2NCc2ccco2)cc1 showed an IC50 of 18.2 µM.
For CC(C)(C)c1ccc(S(=O)(=O)NCC(=O)N2CCN(C(=O)c3ccco3)CC2)cc1, the IC50 was > 50 µM (inactive).
In the case of O=C(Cc1cc(=O)oc2cc(O)ccc12)N[C@@H](Cc1c[nH]c2ccccc12)C(=O)O, the IC50 is reported as > 50 µM (inactive).
With Clc1ccc(-c2ncc3ccccn23)cc1 the IC50 was > 50 µM (inactive).
In the case of CCOc1ccc(NC(=O)CN2C(=O)COc3ccc(Cl)cc32)cc1, the IC50 is reported as > 50 µM (inactive).
In the case of Cc1sc2ncn(CC(=O)NCCCC(=O)N3CCN(Cc4ccc5c(c4)OCO5)CC3)c(=O)c2c1C, the IC50 is reported as > 50 µM (inactive).
With N#C/C(=C\c1ccc(-c2ccc(F)cc2)o1)C(=O)Nc1nc(-c2cccs2)cs1 the IC50 was > 50 µM (inactive).
With CN1CCN(C(=O)c2ccccc2Nc2ccc(SC(F)F)cc2)CC1 the IC50 was > 50 µM (inactive).
COC(=O)C1=C(C)NC(C)=C(C(=O)OC)C1C(=O)OC(C)C(=O)c1ccccc1 (configuration not stated) was tested, and the IC50 was > 50 µM (inactive).
For O=C(c1cc2c(=O)n3ccccc3nc2s1)N1CCN(c2cccc(Cl)c2)CC1, the IC50 was > 50 µM (inactive).
In the case of O=C(Nc1ccnc(-c2ccncc2)n1)c1ccc(Cl)cc1, the IC50 is reported as > 50 µM (inactive).
In the case of COc1ccc(-n2c(C)cc(/C=C3/SC(=S)N(C)C3=O)c2C)cc1, the IC50 is reported as > 50 µM (inactive).
For COC(=O)Nc1ccc(NC(C)=O)cc1, the IC50 was > 50 µM (inactive).
Cc1ccccc1N=Cc1cc2c(cc1O)OC(N)=C(C#N)C2c1ccccc1 (configuration not stated) was tested, and the IC50 was > 50 µM (inactive).
For Cn1c(SCc2cccc([N+](=O)[O-])c2)nc2c(c1=O)SCC2, the IC50 was > 50 µM (inactive).
In the case of COc1ccc(C2c3c(ncn(Cc4ccco4)c3=N)Oc3ccc4ccccc4c32)cc1 (configuration not stated), the IC50 is reported as > 50 µM (inactive).
With N=c1c(S(=O)(=O)c2ccc(Br)cc2)cc2c(=O)n3ccccc3nc2n1C1CCCCC1 the IC50 was > 50 µM (inactive).
In the case of CSc1sc(C)cc1C1C(C#N)=C(N)N(c2cccnc2)C2=C1C(=O)CCC2 (configuration not stated), the IC50 is reported as 48 µM.
Cc1cc(C(=O)N2CCc3c([nH]c4ccccc34)C2c2c(F)cccc2Cl)no1 (configuration not stated) was tested, and the IC50 was > 50 µM (inactive).
For O=[N+]([O-])c1cccc(-c2n[nH]c(=S)n2-c2ccc(Br)cc2)c1, the IC50 was > 50 µM (inactive).
O=C(NNc1c2ccccc2nc2ccccc12)c1cc2ccccc2cc1O was tested, and the IC50 was > 50 µM (inactive).
COc1ccc2c(c1)C(c1ccc(C)o1)=NNC(c1cccnc1)=N2 was tested, and the IC50 was > 50 µM (inactive).
With Cc1sc2nc(SCC(=O)NCc3ccco3)n(-c3ccccc3)c(=O)c2c1C the IC50 was > 50 µM (inactive).
With CC1(C)CNC(=O)C=C(c2ccccc2)C1 the IC50 was > 50 µM (inactive).
In the case of COc1ccc(NC(=O)N2CCCCCC2)cc1, the IC50 is reported as > 50 µM (inactive).
Cc1ccc(OCC(=O)c2cc(C)n(CC(F)(F)F)c2C)c([N+](=O)[O-])n1 was tested, and the IC50 was > 50 µM (inactive).
With O=C1/C(=C/c2cccs2)Sc2ccccc21 the IC50 was > 50 µM (inactive).
COc1ccc(C2NC(C(=O)O)Cc3c2[nH]c2ccccc32)cc1CN1CCN(c2ccc(F)cc2)CC1 (configuration not stated) was tested, and the IC50 was 7.68 µM.
In the case of O=c1[nH]c(-[n+]2ccc3ccccc3c2)c(/C=N/N=C(\[O-])c2ccccc2)s1, the IC50 is reported as > 50 µM (inactive).
In the case of O=C(O)C1C2CCC(C2)C1C(=O)NCCc1ccc(F)cc1 (configuration not stated), the IC50 is reported as > 50 µM (inactive).
O=C1NC(=O)N(Cc2ccccc2)C(=O)/C1=C/N1CCCc2ccccc21 was tested, and the IC50 was > 50 µM (inactive).
O=c1[nH]c(Nc2ccccc2Cl)cc2ccccc12 was tested, and the IC50 was > 50 µM (inactive).
With CCCCc1cc(=O)oc2c(CN3CCCC3)c(O)c(Cl)cc12 the IC50 was 23 µM.
COC(=O)c1cc2c(ccn2C)n1C was tested, and the IC50 was > 50 µM (inactive).
COCCNC(=O)c1cnn2c(C(F)F)cc(-c3ccc(C)cc3)nc12 showed an IC50 of 37.8 µM.
O=C(NNc1c2ccccc2nc2ccccc12)C12CC3CC(CC(C3)C1)C2 was tested, and the IC50 was > 50 µM (inactive).
In the case of Cc1c(CCC(=O)NC2CC2)c(=O)oc2c(C)c(O)ccc12, the IC50 is reported as 20.8 µM.
With CCc1ccccc1N(CC(=O)NCc1ccco1)C(=O)CCC(=O)Nc1nccs1 the IC50 was > 50 µM (inactive).
For Cc1ccc(NC(=O)COC(=O)Cc2ccsc2)c(C)c1, the IC50 was > 50 µM (inactive).
CC(=O)c1sc2nc(C)c3c(c2c1N)CCCC3 was tested, and the IC50 was 15.3 µM.
For O=c1cn[nH]c2ccccc12, the IC50 was > 50 µM (inactive).
In the case of CCc1nnc(NC(=O)c2c(C)nn(-c3ccccc3)c2Cl)s1, the IC50 is reported as > 50 µM (inactive).
For CCOc1ccc(NS(=O)(=O)c2ccc3c(c2)CCN3C(=O)CCC(=O)O)cc1, the IC50 was > 50 µM (inactive).
For O=C(NC1CCCCCC1)C(=S)NCCc1ccccc1, the IC50 was > 50 µM (inactive).
For Cn1c(=O)c2c(ncn2CCOc2ccc(F)cc2)n(C)c1=O, the IC50 was > 50 µM (inactive).
With COc1ccc(C(=O)Nc2ccc(S(=O)(=O)Nc3onc(C)c3C)cc2)cc1 the IC50 was > 50 µM (inactive).
COc1cc(OC)cc(C(=O)NCCNc2nc3cc(C)cc(C)c3cc2C#N)c1 showed an IC50 of 8.59 µM.
Work on Cc1cccc(C)c1NC(=O)C1=C(O)c2sccc2N(C)S1(=O)=O yielded an IC50 of 4.36 µM.

— PubChem BioAssay AID2823 (Broad Institute, 2010)
